US20120029187A1, “HALOALKYLSULFONANILIDE DERIVATIVE” (Nissan Chemical Industries, Ltd., priority 2009, published 2012)

Experiments:
Format in all cases: in vivo
[1] = system: barnyardgrass; experiment: Test Example 1: herbicidal effects in preemergence treatment under submerged conditions; settings: dose 2.52 g/a
How it was run: (§1)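 Scoring 0 (<5% mortality) to 5 (≥90%) was done three weeks after preemergence application to the water surface of submerged (4 cm) alluvial soil, doses given as g per are. Weeds were seeded and 2.5-leaf rice transplanted on the treatment day; greenhouse at 25–30 °C.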

[2] = system: bulrush; experiment: as above; settings: dose 2.52 g/a
How it was run: as §1

[3] = system: ducksalad; experiment: as above; settings: dose 2.52 g/a
How it was run: as §1

[4] = system: barnyardgrass; experiment: Test Example 3: herbicidal effects in soil treatment; settings: dose 3.2 g/a
How it was run: (§2)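 Seeds were sown in sterilized diluvial soil and covered with about 1.5 cm of soil. Compounds, formulated as emulsifiable concentrates and diluted with water, were sprayed evenly over the soil surface at set doses in g/a. Herbicidal effect was scored on a rating scale three weeks later.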

[5] = system: common chickweed; experiment: as above; settings: dose 3.2 g/a
How it was run: as §2

[6] = system: Italian ryegrass; experiment: as above; settings: dose 3.2 g/a
How it was run: as §2

[7] = system: water foxtail; experiment: as above; settings: dose 3.2 g/a
How it was run: as §2

[8] = system: common ragweed; experiment: as above; settings: dose 3.2 g/a
How it was run: as §2

[9] = system: common lambsquater; experiment: as above; settings: dose 3.2 g/a
How it was run: as §2

[10] = system: large crabgrass; experiment: as above; settings: dose 3.2 g/a
How it was run: as §2

[11] = system: giant foxtail; experiment: as above; settings: dose 3.2 g/a
How it was run: as §2

[12] = system: redroot pigweed; experiment: as above; settings: dose 3.2 g/a
How it was run: as §2

[13] = system: beadstraw; experiment: as above; settings: dose 3.2 g/a
How it was run: as §2

[14] = system: wild oat; experiment: as above; settings: dose 3.2 g/a
How it was run: as §2

[15] = system: velvetleaf; experiment: as above; settings: dose 3.2 g/a
How it was run: as §2

[16] = system: posumbu knotweed; experiment: as above; settings: dose 3.2 g/a
How it was run: as §2

[17] = system: transplanted rice; experiment: Test Example 1: preemergence treatment under submerged conditions, effect on crop; settings: dose 2.52 g/a
How it was run: as §1

[18] = system: barnyardgrass; experiment: Test Example 2: herbicidal effects during the vegetation period under submerged conditions; settings: treatment during the vegetation period under submerged conditions; dose 2.52 g/a
How it was run: (§3)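 Barnyardgrass, bulrush and ducksalad were co-sown in alluvial soil flooded to 4 cm and grown in a greenhouse at 25 to 30° C. At the 1- or 2-leaf stage, water-diluted emulsifiable concentrates went onto the water surface at set doses (g/a). Herbicidal effect was scored three weeks later on a graded scale.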

[19] = system: bulrush; experiment: as above; settings: treatment during the vegetation period under submerged conditions; dose 2.52 g/a
How it was run: as §3

[20] = system: ducksalad; experiment: as above; settings: treatment during the vegetation period under submerged conditions; dose 2.52 g/a
How it was run: as §3

[21] = system: barnyardgrass; experiment: Test Example 4: herbicidal effect in foliage treatment; settings: dose 3.2 g/a
How it was run: (§4)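 Weeds and crops sown in sterilized diluvial soil under ~1.5 cm cover and grown in greenhouse at 25 to 30° C. At 14 days, water-diluted emulsifiable concentrate sprayed onto foliage at set doses (g/a); herbicidal effect scored on a rating scale three weeks after application.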

[22] = system: common chickweed; experiment: as above; settings: dose 3.2 g/a
How it was run: as §4

[23] = system: Italian ryegrass; experiment: as above; settings: dose 3.2 g/a
How it was run: as §4

[24] = system: water foxtail; experiment: as above; settings: dose 3.2 g/a
How it was run: as §4

[25] = system: common ragweed; experiment: as above; settings: dose 3.2 g/a
How it was run: as §4

[26] = system: common lambsquater; experiment: as above; settings: dose 3.2 g/a
How it was run: as §4

[27] = system: large crabgrass; experiment: as above; settings: dose 3.2 g/a
How it was run: as §4

[28] = system: giant foxtail; experiment: as above; settings: dose 3.2 g/a
How it was run: as §4

[29] = system: redroot pigweed; experiment: as above; settings: dose 3.2 g/a
How it was run: as §4

[30] = system: beadstraw; experiment: as above; settings: dose 3.2 g/a
How it was run: as §4

[31] = system: wild oat; experiment: as above; settings: dose 3.2 g/a
How it was run: as §4

[32] = system: velvetleaf; experiment: as above; settings: dose 3.2 g/a
How it was run: as §4

[33] = system: posumbu knotweed; experiment: as above; settings: dose 3.2 g/a
How it was run: as §4

[34] = three weeks after the application

CCOC(=O)N(c1ccccc1CN1COC(C)(C)C(F)C1=O)S(=O)(=O)C(F)(F)F (stereo not drawn) [II-34]
A: barnyardgrass, herbicidal effect (evaluation scale 0-5) [1]: 5 (mortality of 90% or above (nearly complete death)) | B: bulrush, herbicidal effect (evaluation scale 0-5) [2]: 5 (mortality of 90% or above (nearly complete death)) | C: ducksalad, herbicidal effect (evaluation scale 0-5) [3]: 5 (mortality of 90% or above (nearly complete death)) | A: barnyardgrass, herbicidal effect (evaluation scale 0-5) [4]: 5 (mortality of 90% or above (nearly complete death)) | N: common chickweed, herbicidal effect (evaluation scale 0-5) [5]: 3 (mortality of at least 40% and less than 70%) | H: Italian ryegrass, herbicidal effect (evaluation scale 0-5) [6]: 2 (mortality of at least 20% and less than 40%) | G: water foxtail, herbicidal effect (evaluation scale 0-5) [7]: 5 (mortality of 90% or above (nearly complete death)) | J: common ragweed, herbicidal effect (evaluation scale 0-5) [8]: 4 (mortality of at least 70% and less than 90%) | L: common lambsquater, herbicidal effect (evaluation scale 0-5) [9]: 3 (mortality of at least 40% and less than 70%) | D: large crabgrass, herbicidal effect (evaluation scale 0-5) [10]: 5 (mortality of 90% or above (nearly complete death)) | E: giant foxtail, herbicidal effect (evaluation scale 0-5) [11]: 4 (mortality of at least 70% and less than 90%) | K: redroot pigweed, herbicidal effect (evaluation scale 0-5) [12]: 3 (mortality of at least 40% and less than 70%) | O: beadstraw, herbicidal effect (evaluation scale 0-5) [13]: 4 (mortality of at least 70% and less than 90%) | F: wild oat, herbicidal effect (evaluation scale 0-5) [14]: 0 (mortality of less than 5% (almost ineffective)) | I: velvetleaf, herbicidal effect (evaluation scale 0-5) [15]: 3 (mortality of at least 40% and less than 70%) | M: posumbu knotweed, herbicidal effect (evaluation scale 0-5) [16]: 5 (mortality of 90% or above (nearly complete death)) | a: transplanted rice, effect on crop (evaluation scale 0-5) [17]: 0 (mortality of less than 5% (almost ineffective)) | A: barnyardgrass, herbicidal effect (evaluation scale 0-5) [18]: 5 (mortality of 90% or above (nearly complete death)) | B: bulrush, herbicidal effect (evaluation scale 0-5) [19]: 5 (mortality of 90% or above (nearly complete death)) | C: ducksalad, herbicidal effect (evaluation scale 0-5) [20]: 5 (mortality of 90% or above (nearly complete death)) | A: barnyardgrass, herbicidal effect ([21]; three weeks after application): 5 (mortality of 90% or above (nearly complete death)) | N: common chickweed, herbicidal effect ([22]; three weeks after application): 4 (mortality of at least 70% and less than 90%) | H: Italian ryegrass, herbicidal effect ([23]; three weeks after application): 4 (mortality of at least 70% and less than 90%) | G: water foxtail, herbicidal effect ([24]; three weeks after application): 5 (mortality of 90% or above (nearly complete death)) | J: common ragweed, herbicidal effect ([25]; three weeks after application): 4 (mortality of at least 70% and less than 90%) | L: common lambsquater, herbicidal effect ([26]; three weeks after application): 3 (mortality of at least 40% and less than 70%) | D: large crabgrass, herbicidal effect ([27]; three weeks after application): 4 (mortality of at least 70% and less than 90%) | E: giant foxtail, herbicidal effect ([28]; three weeks after application): 3 (mortality of at least 40% and less than 70%) | K: redroot pigweed, herbicidal effect ([29]; three weeks after application): 2 (mortality of at least 20% and less than 40%) | O: beadstraw, herbicidal effect ([30]; three weeks after application): 4 (mortality of at least 70% and less than 90%) | F: wild oat, herbicidal effect ([31]; three weeks after application): 0 (mortality of less than 5% (almost ineffective)) | I: velvetleaf, herbicidal effect ([32]; three weeks after application): 3 (mortality of at least 40% and less than 70%) | M: posumbu knotweed, herbicidal effect ([33]; three weeks after application): 4 (mortality of at least 70% and less than 90%)

CN1COCN(Cc2ccccc2N(C(=O)OCCCl)S(=O)(=O)C(F)(F)F)C1=O [IV-3]
A: barnyardgrass, herbicidal effect (evaluation scale 0-5) [1]: 5 (mortality of 90% or above (nearly complete death)) | B: bulrush, herbicidal effect (evaluation scale 0-5) [2]: 5 (mortality of 90% or above (nearly complete death)) | C: ducksalad, herbicidal effect (evaluation scale 0-5) [3]: 5 (mortality of 90% or above (nearly complete death)) | herbicidal effect, A: barnyardgrass [4]: 5 (mortality of 90% or above (nearly complete death)) | herbicidal effect, N: common chickweed [5]: 0 (mortality of less than 5% (almost ineffective)) | herbicidal effect, H: Italian ryegrass [6]: 0 (mortality of less than 5% (almost ineffective)) | herbicidal effect, G: water foxtail [7]: 5 (mortality of 90% or above (nearly complete death)) | herbicidal effect, J: common ragweed [8]: 0 (mortality of less than 5% (almost ineffective)) | herbicidal effect, L: common lambsquater [9]: 0 (mortality of less than 5% (almost ineffective)) | herbicidal effect, D: large crabgrass [10]: 4 (mortality of at least 70% and less than 90%) | herbicidal effect, E: giant foxtail [11]: 3 (mortality of at least 40% and less than 70%) | herbicidal effect, K: redroot pigweed [12]: 0 (mortality of less than 5% (almost ineffective)) | herbicidal effect, O: beadstraw [13]: 0 (mortality of less than 5% (almost ineffective)) | herbicidal effect, F: wild oat [14]: 0 (mortality of less than 5% (almost ineffective)) | herbicidal effect, I: velvetleaf [15]: 5 (mortality of 90% or above (nearly complete death)) | herbicidal effect, M: posumbu knotweed [16]: 0 (mortality of less than 5% (almost ineffective)) | a: transplanted rice, effect on crop (evaluation scale 0-5) [17]: 0 (mortality of less than 5% (almost ineffective)) | A: barnyardgrass, herbicidal effect (evaluation scale 0-5) [18]: 5 (mortality of 90% or above (nearly complete death)) | B: bulrush, herbicidal effect (evaluation scale 0-5) [19]: 5 (mortality of 90% or above (nearly complete death)) | C: ducksalad, herbicidal effect (evaluation scale 0-5) [20]: 4 (mortality of at least 70% and less than 90%) | A: barnyardgrass, herbicidal effect [21, 34]: 4 (mortality of at least 70% and less than 90%) | N: common chickweed, herbicidal effect [22, 34]: 5 (mortality of 90% or above (nearly complete death)) | H: Italian ryegrass, herbicidal effect [23, 34]: 1 (mortality of at least 5% and less than 20%) | G: water foxtail, herbicidal effect [24, 34]: 5 (mortality of 90% or above (nearly complete death)) | J: common ragweed, herbicidal effect [25, 34]: 1 (mortality of at least 5% and less than 20%) | L: common lambsquater, herbicidal effect [26, 34]: 0 (mortality of less than 5% (almost ineffective)) | D: large crabgrass, herbicidal effect [27, 34]: 4 (mortality of at least 70% and less than 90%) | E: giant foxtail, herbicidal effect [28, 34]: 3 (mortality of at least 40% and less than 70%) | K: redroot pigweed, herbicidal effect [29, 34]: 0 (mortality of less than 5% (almost ineffective)) | O: beadstraw, herbicidal effect [30, 34]: 0 (mortality of less than 5% (almost ineffective)) | F: wild oat, herbicidal effect [31, 34]: 0 (mortality of less than 5% (almost ineffective)) | I: velvetleaf, herbicidal effect [32, 34]: 3 (mortality of at least 40% and less than 70%) | M: posumbu knotweed, herbicidal effect [33, 34]: 0 (mortality of less than 5% (almost ineffective))
